Measurements published in BindingDB's records for patent US12351556 (Inserm (Institut National De La Sante Et De La Recherche …, 2025).

These compounds were tested against Mitogen-activated protein kinase 14 (Homo sapiens, UniProt Q16539) (assay: In Vitro Affinity Assay).
Source text: Not found

Chain of Mitogen-activated protein kinase 14 (Q16539 whole entry): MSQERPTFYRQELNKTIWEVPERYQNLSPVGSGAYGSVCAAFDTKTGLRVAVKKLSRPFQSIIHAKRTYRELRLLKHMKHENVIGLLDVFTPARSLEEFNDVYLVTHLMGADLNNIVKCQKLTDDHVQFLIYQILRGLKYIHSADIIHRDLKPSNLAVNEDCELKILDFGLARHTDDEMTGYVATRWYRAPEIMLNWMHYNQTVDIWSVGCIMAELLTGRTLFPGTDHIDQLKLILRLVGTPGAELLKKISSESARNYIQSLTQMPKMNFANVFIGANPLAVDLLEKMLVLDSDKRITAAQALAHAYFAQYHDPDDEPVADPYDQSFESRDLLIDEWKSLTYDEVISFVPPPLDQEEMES

Row | Structure (SMILES) | IC50 [nM]
1 | O=C1NCC(Nc2ccccc2Br)C=C1c1cccc2[nH]ccc12 (stereo not drawn) [US12351556, Compound 141] | 2720
2 | O=C1NCC(NC2=CC(O)CC=C2)C=C1c1cccc2[nH]ccc12 (stereo not drawn) [US12351556, Compound 134] | 1040
3 | O=C1NCC(NC2=CC(Br)CC=C2)C=C1c1cccc2[nH]ccc12 (stereo not drawn) [US12351556, Compound 142] | 660
4 | O=C1NCC(Nc2ccc(Br)cc2)C=C1c1cccc2[nH]ccc12 (stereo not drawn) [US12351556, Compound 143] | 2350
5 | O=C1NCC(Nc2ccc(F)cc2)C=C1c1cccc2[nH]ccc12 (stereo not drawn) [US12351556, Compound 120] | 430
6 | O=C1NCC(Nc2ccc(F)cc2)C=C1c1cccc2[nH]ccc12 (stereo not drawn) [US12351556, Compound 119] | 1420
7 | O=C1NCC(Nc2ccccc2F)C=C1c1cccc2[nH]ccc12 (stereo not drawn) [US12351556, Compound 118] | 230

Other lines, results leading:

Row | IC50 [nM] | Structure (SMILES)
8 | 5250 | COc1ccccc1NC1=CNC(=O)C(c2cccc3[nH]ccc23)C1 (stereo not drawn) [US12351556, Compound 121]
9 | 3030 | O=C1NC=C(Nc2ccccc2)CC1c1cccc2[nH]ccc12 (stereo not drawn) [US12351556, Compound 67]
10 | 5530 | COc1cccc(NC2=CNC(=O)C(c3cccc4[nH]ccc34)C2)c1 (stereo not drawn) [US12351556, Compound 122]
11 | 1060 | Cc1ccccc1NC1=CNC(=O)C(c2cccc3[nH]ccc23)C1 (stereo not drawn) [US12351556, Compound 130]
12 | 3670 | COc1ccc(NC2=CNC(=O)C(c3cccc4[nH]ccc34)C2)cc1 (stereo not drawn) [US12351556, Compound 123]
13 | 1460 | O=C1NC=C(Nc2ccccc2)CC1c1ccccc1Br (stereo not drawn) [US12351556, Compound 69]
